Data: patent US8609147B2, “Use of deuterium oxide for treatment of herpes virus-based diseases of the skin” (D2 Bioscience Group Ltd., priority 2007, dated 2013)

Tested on: HSV-1
Test: Efficacy in a cell culture test: HSV-1 infected human keratinocyte primary cultures, virus count by transmission electron microscopy
Assay type: cell-based
Settings: cell culture medium containing 35 wt % D2O; 3 days after infection with HSV-1; 20 keratinocyte cells evaluated
Method: After a closed monolayer had formed in the cell culture dish and after desmosomes had developed, human keratinocyte primary cultures produced according to H. M. Reinl et al. (J. Invest. Dermatol. 1995; 105(2):291-5) were incubated with cell culture medium additionally containing 35 wt % D2O (sample) and/or H2O (controls). On the day of incubation, the sample and controls were infected with HSV-1. The infection was accomplished by adding the virus to the cell culture medium (10^7 viruses per cell culture dish in 1 mL cell culture medium). After 3 days (after infection), the sample and control groups were tested for the average number of viral particles per cell. The virus count was performed using a transmission electron microscope according to standard fixation and staining methods (glutaraldehyde and osmium tetroxide). In each case, 20 randomly selected keratinocyte cells from the sample group and the control group were evaluated with regard to the viral particles contained in them.

## [2H]O[2H] [D2O, deuterium oxide]
  average virus count (viral particles per cell): 10±4
